Measured values as given in US12435087B2, “Modulators of DCN-1 and methods of use thereof” (Cellarity, Inc., priority 2023, dated 2025).

Tests used:
DCN1 protein = DCN1 protein (Homo sapiens (Human), UniProt Q96GG9); test: Intact protein MS analysis with the RapidFire-TOF system (covalent adduct formation); type: binding; settings: 400 nM DCN1, incubated at room temperature for 3 hours
Summary of the method: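 Tag-free His-TEV-DCN1 expressed in E. coli at 400 nM in 25 mM Tris-HCl, 200 mM NaCl, 1 mM DTT, incubated with 11 compound concentrations at room temperature for 3 h unless otherwise specified. Quenched with 0.2% formic acid; intact-protein RapidFire Q-TOF MS, deconvoluted to detect parent and compound-adduct masses.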

[1] = target: DCN2 (DCUND2) protein PONY domain (Homo sapiens (Human), UniProt Q6PH85); test: DCN2 TR-FRET assay, measurement of Kinact/KI; type: binding
Chain of DCN2 (DCUND2) protein PONY domain (Q6PH85 60-248): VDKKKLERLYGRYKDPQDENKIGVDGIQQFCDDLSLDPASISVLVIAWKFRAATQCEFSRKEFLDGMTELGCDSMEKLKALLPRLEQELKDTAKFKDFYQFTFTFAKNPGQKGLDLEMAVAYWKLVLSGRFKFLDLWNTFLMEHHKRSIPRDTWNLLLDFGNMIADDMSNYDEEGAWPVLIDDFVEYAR
Description: A TR-FRET Assay was performed to evaluate the ability of the compounds to bind DCN-2. The time resolved—Forster's resonance energy transfer (TR-FRET) assay was designed following the protocol established in (Scott et al., Nat Chem Biol. 2017 August; 13(8): 850-857). A recombinant form of the DCN2 (DCUND2) protein PONY domain was produced using an E. coli expression system at Viva Biotech China. The DCN2 protein was biotinylated (EZ sulfo-NHS-LC-biotin; Thermofisher) for labeling with 2.5 nM streptavidin terbium (Tb) cryptate in the reaction. The probe was changed to a non-covalent DCN1 inhibitor labeled with carboxyfluorescein (FAM; Zhou el al., Nat Commun. 2017; 8: 1150). Buffer conditions were modified to enhance protein stability by replacing TritonX with 0.05% Tween20 and increasing NaCl to 200 mM. […] The Kinact and KI measurements were taken to allow for continuous reads over 24 hrs. Plates were read every 5 min up to 1 hr, every 15 min up to 5 hr, and every hour up to 10 hours. Kinact and KI were calculated based on the following equations (Krippendorff B F, et al. Mechanism-based inhibition: deriving K(I) and k(inact) directly from time-dependent IC(50) values. J BiomolScreen. 2009; Mons E et al. A Comprehensive Guide for Assessing Covalent Inhibition in Enzymatic Assays Illustrated with Kinetic Simulations. […] The Kinact and KI values could be estimated from the tight curves of the IC50 values over time. [formula]

Chain of DCN1 protein (Q96GG9 whole entry): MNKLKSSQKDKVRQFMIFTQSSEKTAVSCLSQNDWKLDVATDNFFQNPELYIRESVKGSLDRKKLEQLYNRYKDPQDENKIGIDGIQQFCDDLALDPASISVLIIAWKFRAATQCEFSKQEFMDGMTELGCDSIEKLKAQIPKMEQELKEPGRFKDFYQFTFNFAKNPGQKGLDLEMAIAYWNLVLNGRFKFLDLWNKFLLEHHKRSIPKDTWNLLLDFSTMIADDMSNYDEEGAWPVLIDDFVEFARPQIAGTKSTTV

C=C(CN1CCOCC1)C(=O)Nc1cccc([C@@H]2c3c(C)nn(-c4ccccc4)c3N(CC)C(=O)[C@H]2NC(=O)c2cccc(C(F)(F)F)c2)c1 [Compound I-2, N-((4R,5S)-7-ethyl-3-methyl-4-(3-(2-(morpholinomethyl)acrylamido)phenyl)-6-oxo-1-phenyl-4,5,6,7-tetrahydro-1H-pyrazolo[3,4-b]pyridin-5-yl)-3-(trifluoromethyl)benzamide]
Emax (DCN1 protein): 80 to 100%
Ki [1]: > 0.5 nM
kinact [1]: 0.00333 to 0.005 s⁻¹
kinact/KI [1]: 3.33e+06 to 8.33e+06 M⁻¹ s⁻¹

C/C=C(\CN1CCN(C2COC2)CC1)C(=O)Nc1cccc([C@@H]2c3cnn(-c4ccccc4)c3N(CC)C(=O)[C@H]2NC(=O)c2csc(C(F)(F)F)n2)c1 [Compound I-234, N-((4R,5S)-7-ethyl-4-(3-((E)-2-((4-(oxetan-3-yl)piperazin-1-yl)methyl)but-2-enamido)phenyl)-6-oxo-1-phenyl-4,5,6,7-tetrahydro-1H-pyrazolo[3,4-b]pyridin-5-yl)-2-(trifluoromethyl)thiazole-4-carboxamide]
Emax (DCN1 protein): 80 to 100%
Ki [1]: > 0.5 nM
kinact [1]: 0.00167 to 0.00333 s⁻¹
kinact/KI [1]: 167000 to 3.33e+06 M⁻¹ s⁻¹
